Assay type in all cases: cell-based, human
One assay deals with anti-CD19 CAR+ T cells. The assay is described as follows: Chronic stimulation assay with anti-ID conjugated beads (14 days). The settings on record: inhibitor present from initiation of stimulation; for primary or secondary cytolytic response: 3:1 effector:target cell ratio; for primary or secondary responses: ability of CAR-T cell compositions to produce cytokines: at thaw or after 14 day anti-ID bead stimulation, K562-CD19 1:1. The text has this: Separate compositions of CD4+ and CD8+ cells were isolated from human donors, stimulated by activation with anti-CD3/anti-CD28 magnetic beads and transduced with a viral vector encoding an anti-CD19 CAR having an scFv derived from FMC63. Following cultivation under conditions to expand the cells, T cell compositions containing engineered CD4+ and CD8+ T cells from each donor were then separately harvested, formulated, and cryofrozen. The cryofrozen engineered CD4+ and CD8+ T cells were thawed and formulated at a 1:1 ratio of CD4+ and CD8+ T cells from the same donor to generate a T cell composition containing CAR+ T cells. Anti-idiotype (ID) antibody conjugated beads against the anti-CD19 CAR were incubated with cells at a 1:1 bead:cell ratio for 14 days.
Secondary response of CAR-T cells harvested at day 14 following CAR-specific stimulation with anti-ID conjugated beads (Day 14; secondary) was assessed after stimulation with K562-CD19 antigen-expressing target cells at an effector to target ratio of 1:1 (to assess cytokine levels) or 3:1 (to assess cytolytic activity). The primary response of T cells from the T cell composition that had not been incubated with the anti-ID conjugated beads also was determined by similar stimulation with antigen-expressing cells (Day 0; “primary”). To assess cytolytic activity, the target cells were labeled with NucLight Red (NLR) to permit tracking by fluorescent microscopy. Killing activity was assessed by measuring the loss of viable target cells over 72 hours, as determined by loss of fluorescent signal over time by kinetic fluorescence microscopy (using the INCUCYTE® Live Cell Analysis System, Essen Bioscience). Killing index was determined as the inverse of the area under the curve (AUC) for target fluorescence over time. Intracellular cytokine levels of IL-2 and TNF-alpha were assessed by flow cytometry in co-cultured T cells after incubation in the presence of a Golgi Inhibitor. […]
Primary response of CAR-T cell compositions at thaw (no stimulation with anti-ID conjugated beads) or secondary response of CAR-stimulated CAR-T compositions (following 14 day CAR-specific stimulation with anti-ID conjugated beads) was assessed after stimulation with antigen-expressing cells. CAR-T cell compositions were cultured 1:1 with K562-CD19 antigen-expressing cells in the presence of a Golgi Inhibitor, and polyfunctional cytokine production was assessed by flow cytometry following intracellular cytokine staining for IL-2, IFN-gamma and TNF-alpha. A polyfunctional score was determined from cumulative levels of cytokines as determined in CD8+ cells after the data were normalized by scaling within donor cohorts (FIG. 13A). […]

In another assay the test system is CD8+ CAR-T cells. The assay is described as follows: Glycolytic metabolism (ECAR, Seahorse) of CD8+ CAR-T cells expanded with inhibitor. Particulars: CD8+ CAR-T cells expanded with 1 μM Compound 63; 3 donors. The protocol: Separate compositions of CD4+ and CD8+ cells were isolated from three human donors, activated and transduced with a viral vector encoding an anti-CD19 CAR substantially as described in Example 2. After transduction, the CD4+ and CD8+ T cells derived from each donor were separately incubated for 8 days in the presence of a mTOR kinase inhibitor to expand T cells substantially as described in Example 2, except in the presence of 200 nM PI-103, 1 μM Compound 63, or with DMSO vehicle or media only controls. CD4+ and CD8+ T cells from each donor were then separately harvested, formulated, and cryofrozen. […] Functional activities of the generated anti-CD19 CAR-T cell compositions were assessed.
Changes in cellular glycolytic metabolism in response to T cell receptor (TCR) stimulation were measured in CD8+ CAR-T cells from the generated anti-CD19 CAR-T cell composition prior to combining with CD4+ T cells. Glycolytic metabolism was assessed by measuring the extracellular acidification rate (ECAR) in CD8+ CAR-T cells in real time with an extracellular flux bioanalyzer (Seahorse Bioanalyzer, Agilent Technologies). […] Area under the curve (AUC) for the ECAR rates (mpH/min) from 0 to 76 minutes of the assay and maximal ECAR glycolytic burst ratio relative to media controls (n=3 donors) were determined.

For assay [1], the system named is CD19-expressing target cells. The assay is described as follows: Cytolytic activity of CAR-T cells (mixed CD4+/CD8+ process). Particulars: CAR-T cells prepared with 2 μM PI103 or 1 μM Compound 63; freshly thawed or day 14; 3:1 effector to target. Here is the method: Separate compositions of CD4+ and CD8+ cells were selected from isolated PBMCs from a leukapheresis sample from the same human donor by immunoaffinity based selection, and the selected cell compositions were cryofrozen. The separate compositions of CD4+ and CD8+ T cells were subsequently thawed and mixed at a ratio of 1:1 of viable CD4+ T cells to viable CD8+ T cells. In this study, the mixed CD4+ and CD8+ cell populations were incubated in the presence of Compound 63, PI103 or no inhibitor (DMSO vehicle control) beginning at the initiation of stimulation. In more detail, the mixed CD4+ and CD8+ T cell composition was stimulated (in the presence or absence of an inhibitor, as indicated) in the presence of paramagnetic polystyrene-coated beads with attached anti-CD3 and anti-CD28 antibodies for between 18 to 30 hours, and were then transduced with a lentiviral vector encoding an anti-CD19 CAR. […]
Cytolytic activity of the generated CAR-T cells was assessed by culturing the generated CAR-T cells, either freshly thawed or at day 14 of restimulation from above, with CD19-expressing target cells at a 3:1 effector to target ratio. Target cell death was quantitated over time. The tumor cell growth area under the curve (AUC) of signal over time for each concentration was determined. A killing index was calculated as the inverse of the area under the tumor cell growth curve (1/AUC).

Molecules are shown by their SMILES.

As for `CC(C)c1ccccc1-n1c(=O)[nH]c2c(C(N)=O)nc(-c3cccc(O)c3)nc21` [Compound 63, 2-(3-Hydroxyphenyl)-9-(2-isopropylphenyl)-8-oxo-8,9-dihydro-7H-purine-6-carboxamide], in the assay with anti-CD19 CAR+ T cells, the “primary or secondary cytolytic response” value is “Improvements in primary or secondary cytolytic response” and the “primary or secondary responses: ability of CAR-T cell compositions to produce cytokines” value is “improved primary or secondary responses”. Also, the “glycolytic burst upon TCR stimulation (ECAR AUC, ECAR ratio) relative to media control” value with CD8+ CAR-T cells is reported as “trend towards enhanced glycolytic burst”. The “target cell killing (killing index 1/AUC) compared to CAR-T cells prepared with DMSO” value in assay [1] is recorded as “improved target cell killing”.
On to `Oc1cccc(-c2nc(N3CCOCC3)c3oc4ncccc4c3n2)c1` [PI-103, reference compound], for which, in the assay with anti-CD19 CAR+ T cells, the “primary or secondary cytolytic response” value is reported as “Improvements in primary or secondary cytolytic response” and the “primary or secondary responses: ability of CAR-T cell compositions to produce cytokines” value is on record as “improved primary or secondary responses”. In addition, the “target cell killing (killing index 1/AUC) compared to CAR-T cells prepared with DMSO” value in assay [1] is “improved target cell killing”.
